In ChEMBL document CHEMBL2384932, “Radiosynthesis and evaluation of [11C]EMPA as a potential PET tracer for orexin 2 receptors” (Bioorg Med Chem Lett, 2013):

Experiments:
[1] = Ratio of drug level in brain to plasma of ip dosed mouse after 45 mins; format: ADME, organism-based; details: read-out: BPR
Brain [2] = test: Drug uptake in Sprague-Dawley rat brain at 1.0 to 1.2 mCi, iv after 60 mins by PET-CT scan in presence of non radiolabeled ligand EMPA; format: ADME, organism-based; details: in vivo, 1 h
[3] = Fraction unbound in baboon plasma after 10 mins; format: ADME, cell-free; details: papio anubis
Kidney = test: Drug uptake in Sprague-Dawley rat kidney at 1.0 to 1.2 mCi, iv after 90 mins by PET-CT scan in presence of non radiolabeled ligand EMPA; format: ADME, organism-based; details: in vivo, 1.5 h
[4] = Drug uptake in baboon blood at 4.49 mCi by PET-MR imaging analysis; format: ADME; details: papio anubis
[5] = Lipophilicity, log D of the compound in phosphate buffer at ph 7.4; format: physicochemical
Brain [6] = test: Drug uptake in baboon brain at 4.49 mCi after 80 mins by PET-MR imaging analysis; format: ADME; details: papio anubis, in vivo
Liver = test: Drug uptake in Sprague-Dawley rat liver at 1.0 to 1.2 mCi, iv after 90 mins by PET-CT scan in presence of non radiolabeled ligand EMPA; format: ADME, organism-based; details: in vivo, 1.5 h
[7] = molecular target: T1, Orexin receptor type 2 (Rattus norvegicus) (UniProt P56719); test: Binding affinity to rat brain OX2 receptor assessed per mg of protein
T1 sequence (whole entry): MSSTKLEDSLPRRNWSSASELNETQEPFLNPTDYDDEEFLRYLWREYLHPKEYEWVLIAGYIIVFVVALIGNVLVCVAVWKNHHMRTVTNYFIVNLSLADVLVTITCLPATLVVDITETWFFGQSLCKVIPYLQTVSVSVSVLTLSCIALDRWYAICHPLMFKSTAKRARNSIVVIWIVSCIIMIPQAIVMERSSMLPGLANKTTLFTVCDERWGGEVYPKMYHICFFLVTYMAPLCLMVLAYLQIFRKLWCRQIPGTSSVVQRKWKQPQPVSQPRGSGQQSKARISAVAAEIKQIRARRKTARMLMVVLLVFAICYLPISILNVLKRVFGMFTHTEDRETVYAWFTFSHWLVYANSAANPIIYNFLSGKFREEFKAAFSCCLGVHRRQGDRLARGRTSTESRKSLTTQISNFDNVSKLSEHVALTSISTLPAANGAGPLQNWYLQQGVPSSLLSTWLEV

[3H]c1ccc(CN(CC)C(=O)CN(c2ccc(OC([3H])([3H])[3H])nc2)S(=O)(=O)c2ccccc2C)cn1
Kp at 0.75 h [1]: 0.7

CCN(Cc1cccnc1)C(=O)CN(c1ccc(O[11CH3])nc1)S(=O)(=O)c1ccccc1C
Drug uptake (Brain [2]): < 0.1% | fraction unbound at 10 min [3]: 0.113 | Drug uptake (Kidney): Active | Drug uptake [4]: Active | logD [5]: 1.94 | Drug uptake (Brain [6]): < 0.01% | Drug uptake (Liver): Active

CCN(Cc1cccnc1)C(=O)CN(c1ccc(OC)nc1)S(=O)(=O)c1ccccc1C
Bmax [7]: 6.62 pmol
